Several values for one entry are separate records, joined by “and”; a condition that tells them apart may be missing. Identical values can stand only once.
What was measured:
respiratory functions = experiment: Effects on respiratory functions after oral administration in male Wistar rats; format: in vivo, rat; details: for Pupil diameter: rat, in vivo
Method: The effects of […] (0.5, 50 and 100 mg/kg) on respiratory functions are analyzed after oral (per os) administration in male Wistar rats (8 rats/dose). […] (100 mg/kg) administered under the same conditions is used as a reference substance. Theophylline (100 mg/kg), administered under the same experimental conditions, is used as a reference substance. Carboxymethyl cellulose (0.5%) in distilled water is used as a control vehicle. At the end of the testing period (i.e., 360 minutes after administration of the dose), the behavior of the animals as well as the diameter of their pupils (miosis/mydriasis) are evaluated. Blood samples are taken from each rat (except those pertaining to the theophylline group) in order to analyze the concentration of the substance in the blood. […]

[1] = tested on: plantar edema induced by histamine; experiment: Plantar edema induced by histamine in the mouse, oral administration; format: in vivo; details: for Inhibition of inflammation (%): 3 mg/kg oral; for Anti-inflammatory activity, range over pretreatment times: oral, 120, 90, 60 and 30 minutes beforehand
Method: The goal of this experiment was to detect possible anti-inflammatory activity of […], […] and […] with respect to plantar edema induced by histamine in the mouse. The principle of the test is inspired by the publication of Kreutner et al. (2000). All groups were composed of 10 animals. The products were administered by oral route (25 ml/kg) in pretreatment, at various times: 120, 90, 60 and 30 minutes before the inflammation-producing agent. Sixty minutes later, an injection (10 μl) in the paw was given under isoflurane anesthesia. The right paw received 13 μg of histamine dihydrochloride and the left paw physiological saline solution (histamine vehicle). Thirty minutes after the injections, the animals were euthanized by cervical dislocation. The paws were sampled and weighed. The edemas were quantified by the difference between the weights of the paws (weight of right paw-weight of left paw).

[2] = tested on: histamine-induced bronchoconstriction; experiment: Histamine-induced bronchoconstriction, Konzett model, intravenous administration; format: in vivo, guinea pig
Method: The goal of these experiments is to evaluate the activity of the three compounds […] and […] with respect to histamine-induced bronchoconstriction in the Konzett (1940) guinea pig model. Previously we saw that the three compounds exerted antihistamine activity with respect to H4 receptor in vitro, while on the other hand in vivo only […] and […] appeared anti-inflammatory when the inflammation is generated by histamine. It seems that […] loses its activity when it is administered by oral route. With an aim of analyzing the activity by intravenous route of the three products, the following test was conducted. The animals are ventilated, by means of a constant pressure respiratory pump, by a volume of air in excess. […] The variations observed represent changes in bronchial tonus. Histamine-induced bronchoconstriction causes an increase in the excess volume measured by the sensor. The various compounds are administered by way of the jugular vein, which is catheterized beforehand. Histamine stimulation is then carried out by intravenous route at a dose of 7 μg/kg.

[3] = tested on: bronchoconstriction induced by acetylcholine; experiment: Inhibition of acetylcholine-induced bronchoconstriction in anaesthetized ventilated guinea pigs; format: in vivo, guinea pig
Method: Guinea pigs are anaesthetized and artificially ventilated. The air penetrating the lungs is measured by means of a sensor. Each inspiration is thus quantified. Bronchoconstriction is then induced by intravenous injection of acetylcholine. The effect of acetylcholine is a direct and immediate modification of bronchial tonus. The bronchoconstriction effects of acetylcholine are evaluated in mm at the peak of the effects.

H4 receptor = H4 receptor (Homo sapiens, UniProt Q9H3N8); experiment: G protein activation test ([35S] GTP binding); details: for Effect on G protein activation induced by histamine: 0.1 μM histamine, FIG. 1a; for Functional character at H4 receptor (basal activity in the absence of agonist): FIG. 1b
Chain of H4 receptor (Q9H3N8 whole entry): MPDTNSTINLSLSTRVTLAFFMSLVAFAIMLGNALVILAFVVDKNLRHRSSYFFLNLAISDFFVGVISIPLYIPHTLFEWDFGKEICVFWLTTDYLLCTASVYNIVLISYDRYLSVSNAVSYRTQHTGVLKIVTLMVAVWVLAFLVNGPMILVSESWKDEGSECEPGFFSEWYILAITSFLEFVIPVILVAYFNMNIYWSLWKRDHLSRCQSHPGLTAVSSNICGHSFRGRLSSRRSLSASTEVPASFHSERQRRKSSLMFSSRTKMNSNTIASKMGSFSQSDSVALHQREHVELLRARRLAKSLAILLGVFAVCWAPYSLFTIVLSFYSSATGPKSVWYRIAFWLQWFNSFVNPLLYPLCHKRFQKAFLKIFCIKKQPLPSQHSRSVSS

histamine H4 receptor [4] = target: T1, histamine H4 receptor (Homo sapiens, UniProt Q9H3N8); experiment: Affinity constants by competition with tritiated histamine on membrane preparations from CHO cells expressing H4 receptor; format: binding; set-up: expressed in transfected cells; host or cells: CHO; details: CHO cell membranes
T1 sequence (Q9H3N8 whole entry): as above
Excerpt: In a second series of experiments, the affinity constants of these three compounds are precisely determined by competition with the tritiated histamine radioligand on membrane preparations from CHO cells expressing in a stable manner histamine H4 receptor.

histamine H4 receptor [5] = target: T1, histamine H4 receptor; experiment: Receptor binding in vitro, HEK-293 cells stably transfected with human H4 receptor, 10 nM tritiated histamine; set-up: expressed in transfected cells; host or cells: HEK-293; details: for inhibition at 10 µM: compounds tested at 10 μM, 10 nM tritiated histamine, HEK-293 cells
Method: The goal of this study is to determine an affinity constant of the compound with respect to human histamine H4 receptor in vitro. The model chosen is HEK-293 cells transfected in a stable fashion by cDNA coding for human H4 receptor (Liu et al., 2001). First is determined the affinity of cells expressing each type of receptor for a ligand for which it was also established that it bound 100% to the receptor. The optimal ligand for the recombinant receptor is 10 nM tritiated histamine. Receptor binding is defined as follows: the difference between total binding and the nonspecific binding determined in the presence of excess cold ligand. The results are expressed as a percentage of optimal binding obtained with the ligand model (100%).

[6] = Transcutaneous passage through human skin explants in dynamic diffusion chamber; format: in vitro ADME
Excerpt: The importance of H4 receptor in pruritus was recently established. Thus, an antagonist targeting the histamine H4 receptors involved in dermatological pruritus can constitute a weapon of choice for breaking behaviors related to pruritus and, consequently, for avoiding superinfections generated by the skin lesions caused by pruritus. […] To this end, it is useful to have an H4 antihistamine likely to cross the cutaneous barrier in order to reach its target on subcutaneous mast cells. […] Human skin explants were placed in a dynamic diffusion chamber (diffusion area of 0.636 cm^2), with the dermis in contact with the receptor medium (water; 0.9% NaCl 0.9% NaN3 0.1%/ethanol; 75/25; v/v). The flow rate is 1.5 ml/h. The study is carried out at 32° C. The solution containing the compound (500 μl to 2.5 mg/ml, or 10 μCi per cell) is deposited at T=0. The study of transcutaneous passage is carried out under occlusion. The receiving liquid is sampled at 3, 6, 9, 12, 16, 20 and 24 hours.

| SMILES | Change in respiratory rate (respiratory functions; 100 mg/kg p.o., at 60 minutes) | Inhibition of inflammation (%) ([1]; pretreatment −30 min) | Inhibition of inflammation (%) ([1]; pretreatment −60 min) | Inhibition of inflammation (%) ([1]; pretreatment −90 min) | Inhibition of inflammation (%) ([1]; pretreatment −120 min) | Inhibition at 5 min (%) ([2]; 25 mg/kg i.v.) | Inhibition at 30 min (%) ([2]; 25 mg/kg i.v.) | Inhibition at 5 min (%) ([2]; 37.5 mg/kg i.v.) | Inhibition at 30 min (%) ([2]; 37.5 mg/kg i.v.) | Inhibition at 5 min (%) ([2]; 50 mg/kg i.v.) | Inhibition at 30 min (%) ([2]; 50 mg/kg i.v.) | Percentage of inhibition (%) ([3]; dose 25 μg/kg) | Percentage of inhibition (%) ([3]; dose 50 μg/kg) | Percentage of inhibition (%) ([3]; dose 100 μg/kg) | Effect on G protein activation induced by histamine (H4 receptor) | Functional character at H4 receptor (basal activity in the absence of agonist) (H4 receptor) | Ki (histamine H4 receptor [4]) | Binding to human histamine H4 receptors (in words) (histamine H4 receptor [5]) | inhibition at 10 µM (histamine H4 receptor [5]) | Anti-inflammatory activity, range over pretreatment times [1] | also measured |
| --- | --- | --- | --- | --- | --- | --- | --- | --- | --- | --- | --- | --- | --- | --- | --- | --- | --- | --- | --- | --- | --- |
| Cn1c(=O)c2[nH]cnc2n(C)c1=O [Theophylline, reference compound] | +223% |  |  |  |  |  |  |  |  |  |  |  |  |  |  |  |  |  |  |  | Change in peak flow of expiration (respiratory functions; 100 mg/kg p.o., at 60 minutes): +121%; Change in peak flow of inspiration (respiratory functions; 100 mg/kg p.o., at 60 minutes): +116%; Change in relaxation time (respiratory functions; 100 mg/kg p.o., at 60 minutes): −61%; Change in time of expiration (respiratory functions; 100 mg/kg p.o., at 60 minutes): −63%; Change in time of inspiration (respiratory functions; 100 mg/kg p.o., at 60 minutes): −60%; Change in respiratory volume (respiratory functions; 100 mg/kg p.o., at 120 minutes): −17%; Change in 'improves respiratory pause' parameter (respiratory functions; 100 mg/kg p.o., at 300 minutes): −37%; Change in respiratory pause (respiratory functions; 100 mg/kg p.o., at 300 minutes): −20%; Behavior and signs of morbid state (respiratory functions; 360 minutes post-administration, V0114 0.5, 50 and 100 mg/kg, L0013 and theophylline 100 mg/kg): no change of behavior or signs of morbid state |
| c1ccc2c(c1)Sc1ccccc1N2C[C@H]1CN2CCC1CC2 [V0162, 10-[(3R)-1-azabicyclo[2.2.2]oct-3-ylmethyl]-10H-phenothiazine] |  | +2% | +25% | −5% | +12% | −17 + 3% | −9 ± 8% | −23 + 4% | −9 ± 9% | −31 + 12% | −4 ± 10% | −9 ± 3% | −29 ± 4% | −37 ± 5% | antagonize the activating action | inverse agonists | 1.18 ± 0.16 µM | strongly bind | 52% |  | Effect on histamine edema (in words) ([1]; oral route): does not reduce this edema |
| S=C(NC1CCCCC1)N1CCC(c2cnc[nH]2)CC1 [thioperamide, reference compound] |  |  |  |  |  |  |  |  |  |  |  |  |  |  | antagonize the activating action | inverse agonists |  |  |  |  |  |
| CN1[C@@H]2CC[C@H]1C[C@@H](OC(=O)C(CO)c1ccccc1)C2 (some centres unmarked) [Atropine, reference compound] |  |  |  |  |  |  |  |  |  |  |  |  |  |  |  |  |  |  |  |  | Percentage of inhibition (%) ([3]; dose 5 μg/kg): −76 ± 8% |
| c1ccc2c(c1)Sc1ccccc1N2CC1CN2CCC1CC2 (racemic) [L0013, 10-[(3R,3S)-1-azabicyclo[2.2.2]oct-3-ylmethyl]-10H-phenothiazine] | +80% | −54% | −65% | −82% | −80% | −35 ± 5% | −61 ± 5% | −26 ± 4% | −51 ± 8% | −37 ± 5% | −57 ± 7% | −8 ± 1% | −25 ± 2% | −24 ± 6% | antagonize the activating action | inverse agonists | 1.63 ± 0.2 µM | strongly bind |  | −54% to −82% | Inhibition at 5 min (%) ([2]; 12.5 mg/kg i.v.): −35 ± 6%; Inhibition at 30 min (%) ([2]; 12.5 mg/kg i.v.): −39 ± 7%; Accumulated quantity in receiving liquid (receptor zone) at 24 hours ([6]; 24 hours): 107 μg/cm^2 and 107±28 μg/cm^2; Nearly constant maximum flow ([6]; human, 2.5 mg/ml): 5.4 μg/cm^2/h; Time at which nearly constant maximum flow is reached ([6]; human, 2.5 mg/ml): 16 h; Amount of compound in dermis ([6]; human, 24 h, 2.5 mg/ml): 45±14 μg/cm^2; Amount of compound in epidermis ([6]; human, 24 h, 2.5 mg/ml): 56±17 μg/cm^2; Total amount of compound in skin (epidermis and dermis) ([6]; human, 24 h, 2.5 mg/ml): 101 μg/cm^2; Transcutaneous passage ([6]; human, 24 h, 2.5 mg/ml): approx. 100 μg/cm^2/24 h; Change in respiratory volume (respiratory functions; 100 mg/kg p.o., at 60 minutes): −26%; Change in relaxation time (respiratory functions; 100 mg/kg p.o., at 120 minutes): −30%; Pupil diameter (respiratory functions): appreciable increase |
| c1ccc2c(c1)Sc1ccccc1N2C[C@@H]1CN2CCC1CC2 [V0114, 10-[(3S)-1-azabicyclo[2.2.2]oct-3-ylmethyl]-10H-phenothiazine] |  | −63% | −58% | −72% | −71% | −29 ± 3% | −71 + 5% | −51 ± 8% | −91 + 2% | −48 ± 6% | −97 + 2% | −7 ± 3% | −6 ± 1% | −14 ± 4% | antagonize the activating action | inverse agonists | 2.49 ± 0.37 µM | strongly bind | 33% | −58% to −72% | Inhibition at 5 min (%) ([2]; 12.5 mg/kg i.v.): −15 ± 3%; Inhibition at 30 min (%) ([2]; 12.5 mg/kg i.v.): −35 + 6%; Effect on the nine respiratory parameters evaluated (respiratory functions; 0.5, 50 and 100 mg/kg p.o., 360 minute test period): does not have a significant effect; Pupil diameter (respiratory functions; male, Wistar, 360 min): an increase of 50 mg/kg related to the administration was noted |

Reference: patent US20100273752A1, “MEQUITAZINE FOR TREATING OR PREVENTING PATHOLOGIES INVOLVING HISTAMINE H4 RECEPTORS” (PIERRE FABRE MEDICAMENT, priority 2007, published 2010)
